# Earlier results in US5177084A, “Therapeutic use of substituted benzenes, formulations thereof and novel substituted benzenes” (Merck Sharp & Dohme Ltd., priority 1989, dated 1993).
# Conditions: literature report, test not specified
row,Structure (SMILES),pharmacological activity
1,"COc1ccc(C2(O)CN3CCC2CC3)cc1.O=C(O)C(=O)O (centres unmarked) [Example 2, 3-Hydroxy-3-(4-Methoxyphenyl)quinuclidine Hydrogen Oxalate]",did not display pharmacological activity
2,"O=C(O)C(=O)O.OC1(c2ccc(Cl)cc2)CN2CCC1CC2 (centres unmarked) [Example 4, 3-(4-Chlorophenyl)-3-hydroxy quinuclidine Hydrogen Oxalate]",did not display pharmacological activity
